Source: PMC5462828 (Scientific Reports, 2017)

What was measured:
[1] = target: T1, RXFP1 (Homo sapiens, UniProt Q9HBX9); test: cGMP accumulation in human primary vascular cells and cardiac fibroblasts; assay type: cell-based; conditions: for cGMP accumulation, maximum: DEA 10 μM, 5 min
T1 sequence (Q9HBX9 1-757): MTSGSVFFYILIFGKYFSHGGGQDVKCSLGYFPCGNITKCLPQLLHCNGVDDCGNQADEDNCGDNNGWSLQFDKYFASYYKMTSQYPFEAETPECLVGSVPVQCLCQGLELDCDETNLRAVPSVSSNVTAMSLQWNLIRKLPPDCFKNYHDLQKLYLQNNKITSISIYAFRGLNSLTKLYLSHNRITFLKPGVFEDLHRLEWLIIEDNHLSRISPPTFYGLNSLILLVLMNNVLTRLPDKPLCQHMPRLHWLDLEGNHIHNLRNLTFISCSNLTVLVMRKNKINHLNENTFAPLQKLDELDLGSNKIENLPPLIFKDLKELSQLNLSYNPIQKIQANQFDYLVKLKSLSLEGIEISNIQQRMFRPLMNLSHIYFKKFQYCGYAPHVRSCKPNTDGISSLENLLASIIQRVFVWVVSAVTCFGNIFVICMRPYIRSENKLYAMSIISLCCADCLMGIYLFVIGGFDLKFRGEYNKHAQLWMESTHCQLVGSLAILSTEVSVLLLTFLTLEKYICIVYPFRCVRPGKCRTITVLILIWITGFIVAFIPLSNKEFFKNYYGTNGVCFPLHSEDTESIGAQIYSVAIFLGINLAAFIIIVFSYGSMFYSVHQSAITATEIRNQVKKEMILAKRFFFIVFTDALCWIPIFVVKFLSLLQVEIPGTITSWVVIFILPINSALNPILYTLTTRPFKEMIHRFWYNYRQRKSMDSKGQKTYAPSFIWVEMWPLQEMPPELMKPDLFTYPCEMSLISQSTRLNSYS
Protocol: (§1) cAMP and cGMP accumulation was determined as previously described, [16]. Briefly, HEK293 cells were plated in 96-well plates (5 × 10^4 cells/well) and human primary cells were plated into 24-well plates (1 × 10^5 cells/well) and grown overnight to achieve a confluent monolayer. Prior to stimulation, HEK cells were serum-starved in DMEM containing 0.5% FBS v/v and primary cells were serum-starved in M199 medium for 4–6 hours. Where appropriate, cells were pre-incubated with mSIRK (5 μM, 30 min), mSIRK control peptide L9A (5 μM, 30 min), gallein (100 μM, 30 min), Wortmannin (100 nM, 30 min), NF023 (10 μM, 30 min) and NF449 (10 μM, 30 min). Levels of cAMP and cGMP were detected according to the manufacturer’s instructions (Perkin-Elmer, Australia).

[2] = system: RXFP1; test: as above; assay type: cell-based; conditions: HUAEC, cells that do not express cell surface RXFP1; 30 min
Protocol: as §1

[3] = system: p-Smad2; test: Smad2 phosphorylation assay in human cardiac fibroblasts; assay type: cell-based; conditions: 72 hours
Protocol: Cells were serum-starved in M199 medium for 24 hours prior sample collection. Cells were used between passages 1–4, while all experiments were performed four separate times in duplicate. Levels of p-Smad2 and p-Smad3 were detected using Sure-fire kits according to the manufacturer’s instructions (Perkin-Elmer, Australia).

[4] = system: RXFP3; set-up: method as in PMID 23764525; conditions: cited from earlier work
[5] = set-up: method as in PMID 23764525; conditions: cited from earlier work
[6] = system: human RXFP1; conditions: cited from earlier work
[7] = system: monkey RXFP1; set-up: method as in PMID 26866459; conditions: cited from earlier work
[8] = system: mouse RXFP1; conditions: cited from earlier work
[9] = system: human RXFP1; conditions: cited from earlier work; remark: listed apart in the source
[10] = target: T1, RXFP1; test: p38MAPK phosphorylation (Surefire) in HEK-RXFP1 cells; assay type: cell-based; set-up: expressed in transfected cells; host or cells: HEK293T / HEK293 cells stably expressing RXFP1 (HEK-RXFP1)
Protocol: (§2) p-ERK1/2, p-p38MAPK and p-JNK1/2 was measured using the Surefire ERK, p38 and JNK kits (TGR BioSciences, Australia) as described previously, [16]. Briefly, HEK-RXFP1 cells were plated into 96-well plates (5 × 10^4 cells/well) and primary cells grown in 24-well plates (1 × 10^5 cells/well) overnight to achieve a confluent monolayer. Prior to stimulation, HEK293 cells were serum-starved with DMEM containing 0.5% (v/v) FBS and primary cells in M199 medium for 4–6 hours. […] Levels of p-ERK1/2, p-p38MAPK and p-JNK1/2/3 were detected as per manufacturer’s instructions (Perkin-Elmer, Australia).

[11] = target: T1, RXFP1; test: JNK1/2 phosphorylation (Surefire) in HEK-RXFP1 cells; assay type: cell-based; set-up: expressed in transfected cells; host or cells: HEK293T / HEK293 cells stably expressing RXFP1 (HEK-RXFP1); conditions: up to 45 min, H2 relaxin 100 nM, ML290 100 nM or 10 μM
Protocol: as §2

[12] = target: T1, RXFP1; test: cAMP accumulation in HEK-RXFP1 cells; assay type: cell-based; set-up: expressed in transfected cells; host or cells: HEK293T / HEK293 cells stably expressing RXFP1 (HEK-RXFP1); conditions: read-out: cAMP accumulation efficacy (Emax)
Protocol: as §1

Structure (SMILES): CC(C)Oc1ccccc1C(=O)Nc1ccccc1C(=O)Nc1cccc(S(=O)(=O)C(F)(F)F)c1 [ML290, 2-Isopropoxy-N-(2-(3-(trifluoromethylsulfonyl)phenylcarbamoyl)phenyl) benzamide]
- cGMP accumulation, maximum ([1]; HCAEC, 30 min): 40.6 ± 5.6 % of the DEA response
- cGMP accumulation, maximum ([1]; HUASMC, 30 min): 21.0 ± 4.1 % of the DEA response
- Emax ([1]; HUVEC, read-out: cGMP accumulation efficacy (Emax), HUVEC, 30 min): 23.5%
- cGMP accumulation, maximum ([1]; HUVEC, 30 min): 23.5 ± 4.4 % of the DEA response
- cGMP accumulation, maximum ([1]; HUVSMC, 30 min): 11.0 ± 3.4 % of the DEA response
- Emax ([1]; read-out: cGMP accumulation efficacy (Emax), HCAEC, 30 min): 40.6%
- Emax ([1]; read-out: cGMP accumulation efficacy (Emax), HCF): 45.3%
- Emax ([1]; read-out: cGMP accumulation efficacy (Emax), HUASMC, 30 min): 21%
- Emax ([1]; read-out: cGMP accumulation efficacy (Emax), HUVSMC, 30 min): 11%
- cGMP accumulation [2]: no effect
- effect on p-Smad2 levels ([3]; HCFs not treated with TGF-β1, H2 relaxin 0.1 μM, ML290 1 μM): neither H2 relaxin (0.1 μM) nor ML290 (1 μM) significantly affected
- p-Smad2 in TGF-β1-stimulated cells ([3]; HCFs, TGF-β1 2 ng/ml + H2 relaxin 0.1 μM or ML290 1 μM): 1.58 ± 0.34 fold/basal
- action at RXFP3 [4]: little or no action
- microsomal stability [5]: high microsomal stability
- agonist action at human RXFP1 [6]: activates
- agonist action at monkey RXFP1 [7]: activates
- action at mouse RXFP1 [8]: antagonist actions
- agonist action at the mouse orthologue of RXFP1 [8]: no agonist actions
- competition for 125I-H2 relaxin binding [9]: does not compete
- Emax ([10]; 15 min, read-out: p-p38MAPK efficacy (Emax) (converted)): 16.9%
- p38MAPK phosphorylation, time course ([10]; up to 45 min, H2 relaxin 100 nM, ML290 100 nM or 10 μM): increased p38MAPK phosphorylation
- JNK1/2 phosphorylation, time course [11]: no effect
- Emax [12]: 113%
